What all share (type): cell-based
Experiment [1] relates to HCC827 cells (EGFR Exon19 del, non-small cell lung cancer cells). Put plainly: Cell viability assay (WST/CCK8), HCC827 cells. The note with it: Homo sapiens, HCC827, 72 h, HCC827 (Exon19 Del), 72 hours, read-out: IC50 (half inhibitory concentration). In outline: (§1)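 Cells seeded at 3 000/well in RPMI1640 complete medium, dosed next day with compounds (top 10 μM, 3-fold, 10 points) for 72 h. Viability read with WST (CCK8) reagent; DMSO as negative control, EGFR TKIs as positive controls; IC50 determined.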

Experiment [2] concerns PC9 cells (EGFR Exon 19 del, non-small cell lung cancer cells). Put plainly: Cell viability assay (WST/CCK8), PC9 cells. As to conditions: Homo sapiens, PC-9, PC9 (Exon19 Del), 72 hours, read-out: IC50 (half inhibitory concentration). The procedure, abridged: as §1
For experiment [3], the system named is H1975 (EGFR T790M+L858R mutation, non-small cell lung cancer cell line). As to the kind of experiment: Cell viability assay (WST/CCK8), H1975 cells. The note with it: Homo sapiens, NCI-H1975, H1975 (L858R + T790M), read-out: IC50 (half inhibitory concentration). The text has this: (§2) The cell lines with abnormal EGFR expression used are as follows: • HCC827 cells (EGFR Exon19 del, non-small cell lung cancer cells); • PC9 cells (EGFR Exon 19 del, non-small cell lung cancer cells); • PC9BracA1 (EGFR Exon 19 del+T790M, non-small cell lung cancer cells) • H1975 (EGFR Exon T790M+L858R mutation, non-small cell lung cancer cell line) • BT474 cells (HER2 positive breast cancer cells)
(§3) All of the half inhibitory concentrations (IC50) of these compounds of the present invention were determined with WST reagent from Fuyuan Biotec Company. The specific experiment procedures are as follows: Cancer cells were planted in 96-well-plate at the density of 3 000 cells per well with 100 μL RPMI1640 completed culture medium. In the next day, compounds with indicated concentrations were added to the cells, DMSO was used as the negative control and the EGFR TKIs were used to treat cells as the positive groups. After 72 hours drug treatment, cell viability was measured by using the WST reagent following the instructions.

For experiment [4], the system named is PC9BracA1 (EGFR Exon 19 del+T790M, non-small cell lung cancer cells). As to the kind of experiment: Cell viability assay (WST/CCK8), PC9Brac1 cells. The note with it: read-out: IC50 (half inhibitory concentration).
Text: as §2, §3

Experiment [5] relates to BT474 cells (HER2 positive breast cancer cells). Put plainly: Cell viability assay (CCK8), BT474 cells. As to conditions: Homo sapiens, BT-474, Table 10, BT474, 72 hours, read-out: IC50 (half inhibitory concentration).
Text: as §2
as §3, with “instructions. The growth inhibition curve of the compounds on cells were plotted by Prism GraphPad, and the compounds IC50 calculated from it.” for “instructions.”
The cell viability assays were taken to determine the anti-tumor activity of these indicated compounds in BT474 cells, which can overexpress HER2 protein. The cells were treated with the gradient concentration of these compounds (the maximum concentration: 10 μM; 3-fold dilution ratio, 10 concentration gradients) for 72 hours and then incubated with the CCK8 reagent to determine the cell viability.

Setting [6] is: Table 6, canertinib-based compounds, WST.
[7] abbreviates: Table 7, canertinib-based compounds.
Where [8] appears, read: Table 7, canertinib-based compounds, PC9Brca1 (Ex19del + T790M).
The mark [9] stands for this setting: PC9Brac1 (Ex19del + T790M), 72 hours, WST.

This is an account of results in patent publication US12564638B2 (SHANGHAITECH UNIVERSITY, priority 2019, dated 2026).

pIC50: −log10 of the molar value. Like-named read-outs stand apart in the source and are kept apart here.

As for `C=CC(=O)Nc1cc2c(Nc3ccc(F)c(Cl)c3)ncnc2cc1OCCCN1CCN(C(=O)CNc2cccc3c2C(=O)N(C2CCC(=O)NC2=O)C3=O)CC1` (centres unmarked) [SIAIS262124, N-(4-((3-chloro-4-fluorophenyl)amino)-7-(3-(4-(2-((2-(2,6-dioxopiperidin-3-yl)-1,3-dioxoisoindolin-4-yl)amino)acetyl)piperazin-1-yl)propoxy)quinazolin-6-yl)acrylamide], the pIC50 is 7.99 in experiment [1] (setting [6]); 8.59 in experiment [2] (setting [6]); 6.38 in experiment [3] (setting [7]); 6.38 in experiment [4] (setting [8]); 7.79 in experiment [5].
As for `COc1cc2ncnc(Nc3ccc(F)c(Cl)c3)c2cc1NC(=O)/C=C/CN1CCC(NC(=O)CCCCCCCCCCSc2cccc3c2CN(C2CCC(=O)NC2=O)C3=O)CC1` (centres unmarked) [SIAIS262118, (E)-N-(1-(4-((4-((3-chloro-4-fluorophenyl)amino)-7-methoxyquinazolin-6-yl)amino)-4-oxobut-2-en-1-yl)piperidin-4-yl)-11-((2-(2,6-dioxopiperidin-3-yl)-1-oxoisoindolin-4-yl)thio)undecanamide], the pIC50 in experiment [1] (WST (CCK8)) was 8.52; in experiment [2] (WST (CCK8)) it was 8.42; in experiment [3] (72 hours, WST), 6.52; in experiment [4] (setting [9]) it was 6.69; in experiment [5], 7.20.
For the molecule `C=CC(=O)Nc1cc2c(Nc3ccc(F)c(Cl)c3)ncnc2cc1OCCCN1CCC(N2CCN(CCCCCCNc3cccc4c3C(=O)N(C3CCC(=O)NC3=O)C4=O)CC2)CC1` (centres unmarked) [SIAIS262183, N-(4-((3-chloro-4-fluorophenyl)amino)-7-(3-(4-(4-(6-((2-(2,6-dioxopiperidin-3-yl)-1,3-dioxoisoindolin-4-yl)amino)hexyl)piperazin-1-yl)piperidin-1-yl)propoxy)quinazolin-6-yl)acrylamide], the figures for the pIC50 in experiment [3] (setting [7]), in experiment [4] (setting [8]) and in experiment [5] were 6.60, 5.98 and 7.92, respectively.
As for `C=CC(=O)Nc1cc2c(Nc3ccc(F)c(Cl)c3)ncnc2cc1OCCCN1CCC(N2CCN(C(=O)CCCCCNc3cccc4c3C(=O)N(C3CCC(=O)NC3=O)C4=O)CC2)CC1` (centres unmarked) [SIAIS262178, N-(4-((3-chloro-4-fluorophenyl)amino)-7-(3-(4-(4-(6-((2-(2,6-dioxopiperidin-3-yl)-1,3-dioxoisoindolin-4-yl)amino)hexanoyl)piperazin-1-yl)piperidin-1-yl)propoxy)quinazolin-6-yl)acrylamide], the pIC50 in experiment [1] (setting [6]) is 8.28; in experiment [2] (setting [6]), 9.40; in experiment [3] (setting [7]), 7.42; in experiment [4] (setting [8]) it was 7.16; in experiment [5] it was 8.68.
The matching figures for `C=CC(=O)Nc1cc2c(Nc3ccc(F)c(Cl)c3)ncnc2cc1OCCCN1CCN(C(=O)CCCCCSc2cccc3c2CN(C2CCC(=O)NC2=O)C3=O)CC1` (centres unmarked) [SIAIS262123, N-(4-((3-chloro-4-fluorophenyl)amino)-7-(3-(4-(6-((2-(2,6-dioxopiperidin-3-yl)-1-oxoisoindolin-4-yl)thio)hexanoyl)piperazin-1-yl)propoxy)quinazolin-6-yl)acrylamide]: 8.70, 8.08, 6.84, 6.42 and 7.31.
Turning to `C=CC(=O)Nc1cc2c(Nc3ccc(F)c(Cl)c3)ncnc2cc1OCCCN1CCN(CCCCC#CC2c3ccccc3C(=O)N2C2CCC(=O)NC2=O)CC1` (centres unmarked) [SIAIS262131, N-(4-((3-chloro-4-fluorophenyl)amino)-7-(3-(4-(6-(2-(2,6-dioxopiperidin-3-yl)-3-oxoisoindolin-1-yl)hex-5-yn-1-yl)piperazin-1-yl)propoxy)quinazolin-6-yl)acrylamide], the pIC50 in experiment [1] (setting [6]) was 8.92; in experiment [2] (setting [6]) it was 7.53; in experiment [3] (setting [7]), 7.35; in experiment [4] (setting [8]) it was 6.67; in experiment [5] it was 8.29.
On to `C=CC(=O)Nc1cc2c(Nc3ccc(F)c(Cl)c3)ncnc2cc1OCCCN1CCC(N2CCN(C(=O)CSc3cccc4c3CN(C3CCC(=O)NC3=O)C4=O)CC2)CC1` (centres unmarked) [SIAIS262174, N-(4-((3-chloro-4-fluorophenyl)amino)-7-(3-(4-(4-(2-((2-(2,6-dioxopiperidin-3-yl)-1-oxoisoindolin-4-yl)thio)acetyl)piperazin-1-yl)piperidin-1-yl)propoxy)quinazolin-6-yl)acrylamide], for which the pIC50 was 7.96 in experiment [1] (setting [6]); 7.78 in experiment [2] (setting [6]); 6.54 in experiment [3] (setting [7]); 6.57 in experiment [4] (setting [8]); 7.55 in experiment [5].
As to `C=CC(=O)Nc1cc2c(Nc3ccc(F)c(Cl)c3)ncnc2cc1OCCCN1CCN(C(=O)CCCCSc2cccc3c2CN(C2CCC(=O)NC2=O)C3=O)CC1` (centres unmarked) [SIAIS262122, N-(4-((3-chloro-4-fluorophenyl)amino)-7-(3-(4-(5-((2-(2,6-dioxopiperidin-3-yl)-1-oxoisoindolin-4-yl)thio)pentanoyl)piperazin-1-yl)propoxy)quinazolin-6-yl)acrylamide], the pIC50 in experiment [1] (setting [6]) was 8.39; in experiment [2] (setting [6]), 7.64; in experiment [3] (setting [7]), 7.01; in experiment [4] (setting [8]), 6.32; in experiment [5] it was 7.32.
Take `C=CC(=O)Nc1cc2c(Nc3ccc(F)c(Cl)c3)ncnc2cc1OCCCN1CCC(N2CCN(C(=O)CCCCCSc3cccc4c3CN(C3CCC(=O)NC3=O)C4=O)CC2)CC1` (centres unmarked) [SIAIS262176, N-(4-((3-chloro-4-fluorophenyl)amino)-7-(3-(4-(4-(6-((2-(2,6-dioxopiperidin-3-yl)-1-oxoisoindolin-4-yl)thio)hexanoyl)piperazin-1-yl)piperidin-1-yl)propoxy)quinazolin-6-yl)acrylamide]: the pIC50 in experiment [1] (setting [6]) was 8.48; in experiment [2] (setting [6]), 7.80; in experiment [3] (setting [7]), 7.17; in experiment [4] (setting [8]) it was 6.33; in experiment [5], 8.85.
`COc1cc2ncnc(Nc3ccc(F)c(Cl)c3)c2cc1NC(=O)/C=C/CN1CCC(N2CCN(C(=O)CNc3cccc4c3C(=O)N(C3CCC(=O)NC3=O)C4=O)CC2)CC1` (centres unmarked) [SIAIS262036, (E)-N-(4-((3-chloro-4-fluorophenyl)amino)-7-methoxyquinazolin-6-yl)-4-(4-(4-(2-((2-(2,6-dioxopiperidin-3-yl)-1,3-dioxoisoindolin-4-yl)amino)acetyl)piperazin-1-yl)piperidin-1-yl)but-2-enamide]: the pIC50 in experiment [1] (WST (CCK8)) is 8.62; in experiment [2] (WST (CCK8)), 8.17; in experiment [3] (72 hours, WST), 6.29; in experiment [4] (setting [9]) it was 6.58; in experiment [5], 9.52.
Take `C=CC(=O)Nc1cc2c(Nc3ccc(F)c(Cl)c3)ncnc2cc1OCCCN1CCC(N2CCN(C(=O)CCCCCCNc3cccc4c3C(=O)N(C3CCC(=O)NC3=O)C4=O)CC2)CC1` (centres unmarked) [SIAIS262179, N-(4-((3-chloro-4-fluorophenyl)amino)-7-(3-(4-(4-(7-((2-(2,6-dioxopiperidin-3-yl)-1,3-dioxoisoindolin-4-yl)amino)heptanoyl)piperazin-1-yl)piperidin-1-yl)propoxy)quinazolin-6-yl)acrylamide]: the pIC50 in experiment [1] (setting [6]) was 8.60; in experiment [2] (setting [6]) it was 7.99; in experiment [3] (setting [7]), 7.37; in experiment [4] (setting [8]), 6.74; in experiment [5], 7.84.
